Laboratory results: patent publication US20190117994A1, “METHODS USEFUL FOR REMODELING MAXILLOFACIAL BONE USING LIGHT THERAPY AND A FUNCTIONAL APPLIANCE” (Biolux Research Ltd., priority 2010, published 2019)

What was measured:
[1] = tested on: teeth and alveolar bone of an adult patient; assay: Example 3: orthodontic treatment with daily light and oral vitamin D3 supplementation; type: in vivo; conditions: passive (retention) phase, 2000 IU to 12,000 IU per day oral vitamin D3, light once per week at about 625 nm
Experimental: An adult patient is tested for Vitamin D3 blood serum levels at the same time as their routine orthodontic examination and records appointment. The patient's diagnosis is Class I mild crowding with 4 mm of crowding on the upper arch and 4 mm on the lower arch. An orthodontic treatment plan is formulated to include the installation of a fixed orthodontic appliance with some mild expansion of the upper and lower arches.
The patient self-administers oral oil-based vitamin D3 capsules of 6000 IU per day for 3 months to increase their vitamin D3 serum levels. Laboratory serum testing is optionally performed again after 3 months of vitamin D3 supplementation. The patient maintains or adjusts their oral dose of vitamin D3 based on their subsequent lab results.
Orthodontic treatment is started either after the 3 month period or anytime prior. The patient has conventional fixed orthodontic brackets, and bands placed on their teeth with an initial 0.016 inch NiTi wire tied in place with silcone ligatures. […]
At a passive state of orthodontic treatment, i.e., retention phase, a fixed retention orthodontic appliance is installed on the patient's teeth. […] The dosage can be determined based on vitamin D blood serum levels which can be measured periodically to determine dosing. […]

[2] = daily oral supplement of 2,000 IU to 6,000 IU in adults, within 3 months; cited from earlier work

Compound | alveolar bone density around the teeth [1] | blood levels of vitamin D [2] [ng/mL]
C=C1CC[C@H](O)C/C1=C/C=C1\CCC[C@]2(C)[C@@H]([C@H](C)CCCC(C)C)CC[C@@H]12 [vitamin D3] | increased | –
vitamin D | – | 40
